Data published in ChEMBL document CHEMBL1157271, “Maprouneacin, a new daphnane diterpenoid with potent antihyperglycemic activity from Maprounea africana” (1999).

How the values were obtained:
Assay type in all cases: functional
Mus musculus [1] = experiment: Antihyperglycemic activity in NIDDM db/db mouse model assessed as change in plasma glucose level at 0.5 mg/kg, qd after 3 hrs relative to pre-dosed control
Mus musculus [2] = experiment: Antihyperglycemic activity in NIDDM db/db mouse model assessed as body weight per mouse at 0.5 mg/kg, qd after 24 hrs
Mus musculus [3] = experiment: Antihyperglycemic activity in NIDDM db/db mouse model assessed as food intake per mouse at 0.5 mg/kg, qd
Mus musculus [4] = experiment: Antihyperglycemic activity in NIDDM db/db mouse model assessed as change in plasma glucose level at 0.5 mg/kg, qd after 27 hrs relative to pre-dosed control

CCCCC/C=C/C=C/[C@]12O[C@@H]3[C@@H]4[C@@H]5O[C@]5(CO)[C@@H](O)[C@]5(O)C(=O)C(C)=C[C@H]5[C@@]4(O1)[C@H](COC(=O)CC(C)C)[C@H](OC(=O)CC(C)C)[C@]3([C@]1(C)CO1)O2 [MAPROUNEACIN]
Activity (Mus musculus [1]): -254 mg/dL | Activity (Mus musculus [2]): 37.8 g | Activity (Mus musculus [3]): 0.1 g | Activity (Mus musculus [4]): -246 mg/dL
